Experimental data reported in publication PMC5845353, “The selective cathepsin K inhibitor MIV-711 attenuates joint pathology in experimental animal models of osteoarthritis” (Journal of Translational Medicine, 2018).
“And” between values parts separate entries of the source, which are not always exact repeats. Equal values may be shown once.

How the values were obtained:
plasma proteins = assay: Fraction bound to plasma proteins, dog; assay type: in vitro ADME
CTX-I = assay: Urinary CTX-I in dogs subjected to partial medial meniscectomy; assay type: in vivo; conditions: dog, 30 µmol/kg
Experimental: (§1) Dogs subjected to partial medial meniscectomy received either 30 µmol/kg MIV-711 (synthesized by Medivir and given as a suspension in 1% Methocel A4C; n = 15) or vehicle (1% Methocel A4C; n = 15) by orogastric gavage once daily in the morning. […] Dosing started the day before surgery and lasted through Day 28, the day before necropsy. Each dog was fasted for at least 12 h before dosing and food were returned approximately 4 h following test article administration.
(§2) Urine samples were collected from the animals 1 to 3 days before surgery and treatment (baseline sample), 4 to 7 days after the start of treatment (Day 7 sample) and 26 to 28 days after treatment (Day 28 sample). Dogs were housed in metabolic cages overnight during urine collection. […]
(§3) In rabbits, conventional CTX-I assays to assess bone resorption cannot be used due to species differences. Instead, urinary helical peptide (HP-1) concentrations were measured in rabbits using the MicroVue Helical Peptide kit (Ref: 8022) from Quidel (San Diego, CA) according to the instructions supplied by the manufacturer. In dogs, urinary levels of C-terminal telopeptide of collagen type I (CTX-I) were measured using a commercially available kit (Urine BETA CrossLaps ELISA, Ref: AC-05F1, IDS Nordic Bioscience Diagnostics A/S). […] In dogs, CTX-II levels were also measured in synovial fluid. […]

CTX-II = assay: Urinary CTX-II in dogs subjected to partial medial meniscectomy; assay type: in vivo; conditions: dog, 30 µmol/kg
Experimental: as §1, §2, §3

[1] = tested on: dogs subjected to partial medial meniscectomy; assay: Dog partial medial meniscectomy study, collagen damage width; assay type: in vivo
Source text: Collagen damage across the medial tibial plateau (most severely affected section) was quantified by measuring the total width of the following:
Any damage (fibrillation ranging from superficial to full thickness loss)
Severe damage (total or near total loss of collagen to tidemark, >90% thickness)
Marked damage (extends through 61-90% of the cartilage thickness)
Moderate damage (extends thru 31-60% of the cartilage thickness)
Mild damage (extends through 11-30% of the cartilage thickness)
Minimal damage (very superficial, affecting upper 10% only)
Single clefts were arbitrarily given a measure of 100 µm and the number of clefts was multiplied by 100 if several are present.

[2] = biological target: rabbit cathepsin K enzyme; design: method as in PMID 29743078; conditions: read-out: Ki against rabbit cathepsin K enzyme; cited from earlier work
cathepsin K from human = biological target: cathepsin K from human; design: method as in PMID 29743078; conditions: read-out: Ki against cathepsin K from human; cited from earlier work
[3] = individual animals of MIV-711 group

C#C[C@@H]1CN(C(=O)[C@H](CC(C)C)NC(=O)c2ccc(-c3nc(N4CCN(C)CC4)sc3F)cc2)[C@@H]2C(=O)CO[C@H]12 [MIV-711]
fraction bound to plasma proteins (plasma proteins): 90%
urinary CTX-I levels reduced by (CTX-I; Day 7, vs. baseline): 78%
urinary CTX-I levels reduced by (CTX-I; Day 28, vs. baseline): 86%
urinary CTX-II levels reduced by (CTX-II; Day 7, vs. baseline): 80%
urinary CTX-II levels reduced by (CTX-II; Day 28, vs. baseline): 80%
collagen degeneration, percentage of total width: Mild ([1]; group Mean): 17%
collagen degeneration, percentage of total width: Mild+ Minimal ([1]; group Mean): 28%
collagen degeneration, percentage of total width: Minimal ([1]; group Mean): 11%
collagen degeneration, percentage of total width: Moderate+ Mild+ Minimal ([1]; group Mean): 30%
collagen degeneration, percentage of total width: Normal ([1]; group Mean): 70%
collagen degeneration, percentage of total width: Severe ([1]; group Mean): 0%
collagen degeneration, percentage of total width: Severe+ Marked ([1]; group Mean): 0%
collagen degeneration, percentage of total width: Severe+ Marked+ Moderate ([1]; group Mean): 2%
collagen degeneration, percentage of total width: Severe+ Marked+ Moderate+ Mild ([1]; group Mean): 19%
collagen degeneration, percentage of total width: Total ([1]; group Mean): 30%
collagen degeneration, percentage of total width: Mild [1, 3]: 10% and 26% and 11% and 4% and 31% and 27% and 13% and 25% and 30% and 14% and 8% and 16%
collagen degeneration, percentage of total width: Mild+ Minimal [1, 3]: 18% and 31% and 23% and 14% and 35% and 39% and 20% and 24% and 34% and 58% and 25% and 16% and 28% and 30%
collagen degeneration, percentage of total width: Minimal [1, 3]: 9% and 5% and 12% and 10% and 4% and 7% and 8% and 27% and 2% and 20% and 14%
collagen degeneration, percentage of total width: Moderate+ Mild+ Minimal [1, 3]: 19% and 31% and 23% and 24% and 35% and 39% and 27% and 34% and 58% and 29% and 18% and 28% and 26% and 30%
collagen degeneration, percentage of total width: Normal [1, 3]: 81% and 69% and 77% and 76% and 65% and 61% and 73% and 62% and 42% and 71% and 82% and 72% and 74% and 70%
collagen degeneration, percentage of total width: Severe [1, 3]: 0%
collagen degeneration, percentage of total width: Severe+ Marked [1, 3]: 0%
collagen degeneration, percentage of total width: Severe+ Marked+ Moderate [1, 3]: 1% and 0% and 10% and 7% and 4% and 2% and 3%
collagen degeneration, percentage of total width: Severe+ Marked+ Moderate+ Mild [1, 3]: 11% and 26% and 14% and 31% and 27% and 20% and 13% and 25% and 30% and 17% and 16% and 8% and 19%
collagen degeneration, percentage of total width: Total [1, 3]: 19% and 31% and 23% and 24% and 35% and 39% and 27% and 38% and 58% and 29% and 18% and 28% and 26% and 30%
% inhibition, collagen degeneration width: Mild ([1]; versus Vehicle): -2%
% inhibition, collagen degeneration width: Mild+ Minimal ([1]; versus Vehicle): 12%
% inhibition, collagen degeneration width: Minimal ([1]; versus Vehicle): 28%
% inhibition, collagen degeneration width: Moderate+ Mild+ Minimal ([1]; versus Vehicle): 12%
% inhibition, collagen degeneration width: Normal ([1]; versus Vehicle): -6%
% inhibition, collagen degeneration width: Severe+ Marked+ Moderate ([1]; versus Vehicle): 21%
% inhibition, collagen degeneration width: Severe+ Marked+ Moderate+ Mild ([1]; versus Vehicle): 1%
% inhibition, collagen degeneration width: Total ([1]; versus Vehicle): 12%
Ki [2]: 3.3 nM
Ki (cathepsin K from human): 0.98 nM
